Test results reported in patent publication US4929612A, “Thiadiazolylacetamide cephem derivatives” (Eisai Co., Ltd., priority 1987, dated 1990).
Values after ≈ are worked out from the molar mass of the structure shown. Like-named read-outs stand apart in the source and are kept apart here.

Assays:
Staph. aureus 209-P = assay: anti-bacterial activity, MIC, Staph. aureus 209-P; assay type: cell-based; conditions: Staphylococcus aureus, inoculum size 10^6 CFU/ml
Source text: (§1) Test bacterium MIC (μg/ml) Inoculum size 10^6 CFU/ml

Escher. coli NIHJ = assay: anti-bacterial activity, MIC, Escher. coli NIHJ; assay type: cell-based; conditions: Escherichia coli, inoculum size 10^6 CFU/ml
Source text: as §1

Kleb. pneumoniae EK-6 = assay: anti-bacterial activity, MIC, Kleb. pneumoniae EK-6; assay type: cell-based; conditions: Klebsiella pneumoniae, EK6
Source text: as §1

Ser. marcescens ES-75 = assay: anti-bacterial activity, MIC, Ser. marcescens ES-75; assay type: cell-based; conditions: Serratia marcescens, ES75
Source text: as §1

[1] = system: Morganella morganii EP-14; assay: anti-bacterial activity, MIC, Morganella morganii EP-14; assay type: cell-based; conditions: EP14, inoculum size 10^6 CFU/ml
Source text: as §1

Pseud. aeruginosa EP-01 = assay: anti-bacterial activity, MIC, Pseud. aeruginosa EP-01; assay type: cell-based; conditions: Pseudomonas aeruginosa, EP01, inoculum size 10^6 CFU/ml
Source text: as §1

[2] = Acute toxicity, LD50 (mouse, intravenous injection); conditions: in vivo
Source text: Acute toxicity [LD50 (mouse, intravenous injection)] of the following compounds was more than 3 g/kg, respectively.

[3] = Kleb. pneumoniae EK-6, inoculum size 10^6 CFU/ml, read-out: MIC
[4] = Ser. marcescens ES-75, inoculum size 10^6 CFU/ml, read-out: MIC

| SMILES | MIC (Staph. aureus 209-P) [µg/mL] | MIC (Escher. coli NIHJ) [µg/mL] | MIC (Kleb. pneumoniae EK-6; [3]) [µg/mL] | MIC (Ser. marcescens ES-75; [4]) [µg/mL] | MIC [1] [µg/mL] | MIC (Pseud. aeruginosa EP-01) [µg/mL] | LD50 [2] [mg/kg] | MIC (Ser. marcescens ES-75) [µg/mL] | MIC (Kleb. pneumoniae EK-6) [µg/mL] |
| --- | --- | --- | --- | --- | --- | --- | --- | --- | --- |
| NC(=O)C12CC[N+](CC3=C(C(=O)[O-])N4C(=O)[C@@H](NC(=O)/C(=N\OCF)c5nsc(N)n5)[C@H]4SC3)(CC1)CC2 [Example 1, 7β-[2-(5-Amino-1,2,4-thiadiazol-3-yl)-(Z)-2-fluoromethoxyiminoacetamido]-3-(4-carbamoyl-1-quinuclidinio)methyl-3-cephem-4-carboxylate] | 1.56 (≈ 2.74 µM) | 0.05 (≈ 0.0879 µM) | 0.05 (≈ 0.0879 µM) | 0.1 (≈ 0.176 µM) | 0.05 (≈ 0.0879 µM) | 0.4 (≈ 0.703 µM) | > 3000 | – | – |
| CC12CC[N+](CC3=C(C(=O)[O-])N4C(=O)[C@@H](NC(=O)/C(=N\OCF)c5nsc(N)n5)[C@H]4SC3)(CC1)CC2 [Example 2, 7β-[2-(5-Amino-1,2,4-thiadiazol-3-yl)-(Z)-2-fluoromethoxyiminoacetamido]-3-(4-methyl-1-quinuclidinio)methyl-3-cephem-4-carboxylate] | 0.8 (≈ 1.48 µM) | 0.05 (≈ 0.0927 µM) | 0.05 (≈ 0.0927 µM) | – | 0.1 (≈ 0.185 µM) | 0.8 (≈ 1.48 µM) | – | 0.1 (≈ 0.185 µM) | – |
| Nc1nc(/C(=N/OCF)C(=O)N[C@@H]2C(=O)N3C(C(=O)[O-])=C(C[N+]45CCC(O)(CC4)C5)CS[C@H]23)ns1 [Example 3, 7β-[2-(5-Amino-1,2,4-thiadiazol-3-yl)-(Z)-2-fluoromethoxyiminoacetamido]-3-(4-hydroxy-1,4-methylene-1-piperidinio)methyl-3-cephem-4-carboxylate] | 0.4 (≈ 0.758 µM) | 0.05 (≈ 0.0948 µM) | – | 0.1 (≈ 0.19 µM) | 0.05 (≈ 0.0948 µM) | 0.8 (≈ 1.52 µM) | > 3000 | – | 0.1 (≈ 0.19 µM) |
| C[N+](C)(CCC(N)=O)CC1=C(C(=O)[O-])N2C(=O)[C@@H](NC(=O)/C(=N\OCF)c3nsc(N)n3)[C@H]2SC1 [Example 5, 7β-[2-(5-Amino-1,2,4-thiadiazol-3-yl)-(Z)-2-fluoromethoxyiminoacetamido]-3-[N,N-dimethyl-N-(2-carbamoyl)ethylammonio]methyl-3-cephem-4-carboxylate] | 1.56 (≈ 2.94 µM) | ≤ 0.025 | ≤ 0.025 | – | 0.05 (≈ 0.0942 µM) | 1.56 (≈ 2.94 µM) | – | 0.1 (≈ 0.188 µM) | – |
| Nc1nc(/C(=N/OCF)C(=O)N[C@@H]2C(=O)N3C(C(=O)[O-])=C(C[N+]45CCC(CO)(CC4)CC5)CS[C@H]23)ns1 [Example 11, 7β-[2-(5-Amino-1,2,4-thiadiazol-3-yl)-(Z)-2-fluoromethoxyiminoacetamido]-3-(4-hydroxylmethyl-1-quinuclidinio)methyl-3-cephem-4-carboxylate] | 0.8 (≈ 1.44 µM) | ≤ 0.025 | ≤ 0.025 | 0.1 (≈ 0.18 µM) | ≤ 0.025 | 0.4 (≈ 0.72 µM) | > 3000 | – | – |

Further lines, with some results ahead:

| MIC (Staph. aureus 209-P) [µg/mL] | MIC (Escher. coli NIHJ) [µg/mL] | MIC (Kleb. pneumoniae EK-6; [3]) [µg/mL] | MIC (Ser. marcescens ES-75; [4]) [µg/mL] | MIC [1] [µg/mL] | MIC (Pseud. aeruginosa EP-01) [µg/mL] | SMILES | LD50 [2] [mg/kg] | MIC (Ser. marcescens ES-75) [µg/mL] | MIC (Kleb. pneumoniae EK-6) [µg/mL] |
| --- | --- | --- | --- | --- | --- | --- | --- | --- | --- |
| 0.8 (≈ 1.6 µM) | ≤ 0.025 | 0.05 (≈ 0.1 µM) | 0.05 (≈ 0.1 µM) | ≤ 0.025 | 0.8 (≈ 1.6 µM) | C[N+]1(CC2=C(C(=O)[O-])N3C(=O)[C@@H](NC(=O)/C(=N\OCF)c4nsc(N)n4)[C@H]3SC2)CCCC1 [Example 4, 7β-[2-(5-Amino-1,2,4-thiadiazol-3-yl)-(Z)-2-fluoromethoxyiminoacetamido]-3-(1-methyl-1-pyrrolidinio)methyl-3-cephem-4-carboxylate] | – | – | – |
| 1.56 (≈ 2.81 µM) | 0.05 (≈ 0.0902 µM) | 0.05 (≈ 0.0902 µM) | 0.1 (≈ 0.18 µM) | 0.05 (≈ 0.0902 µM) | 0.8 (≈ 1.44 µM) | C[N+]1(CC2=C(C(=O)[O-])N3C(=O)[C@@H](NC(=O)/C(=N\OCF)c4nsc(N)n4)[C@H]3SC2)CC=C(C(N)=O)CC1 (stereo partly drawn) [Example 6, 7β-[2-(5-Amino-1,2,4-thiadiazol-3-yl)-(Z)-2-fluoromethoxyiminoacetamido]-3-(4-carbamoyl-1-methyl-1,2,3,6-tetrahydropyridinio)methyl-3-cephem-4-carboxylate] | – | – | – |
| 6.25 (≈ 11.1 µM) | 0.1 (≈ 0.177 µM) | 0.1 (≈ 0.177 µM) | 0.4 (≈ 0.71 µM) | 0.1 (≈ 0.177 µM) | 3.13 (≈ 5.55 µM) | Nc1nc(/C(=N/OCF)C(=O)N[C@@H]2C(=O)N3C(C(=O)[O-])=C(C[N+](CCO)(CCO)CCO)CS[C@H]23)ns1 [Example 7, 7β-[2-(5-Amino-1,2,4-thiadiazol-3-yl)-(Z)-2-fluoromethoxyiminoacetamido]-3-[tris(2-hydroxyethyl)ammonio]methyl-3-cephem-4-carboxylate] | – | – | – |
| 0.4 (≈ 0.743 µM) | ≤ 0.025 | 0.05 (≈ 0.0928 µM) | 0.05 (≈ 0.0928 µM) | 0.05 (≈ 0.0928 µM) | 0.8 (≈ 1.49 µM) | Nc1nc(/C(=N/OCF)C(=O)N[C@@H]2C(=O)N3C(C(=O)[O-])=C(C[n+]4ccc5n4CCOC5)CS[C@H]23)ns1 [Example 8, 7β-[2-(5-Amino-1,2,4-thiadiazol-3-yl)-(Z)-2-fluoromethoxyiminoacetamido]-3-[1-morpholino-[4,3-b]pyrazolio]methyl-3-cephem-4-carboxylate] | – | – | – |
| 0.4 (≈ 0.76 µM) | 0.05 (≈ 0.095 µM) | 0.05 (≈ 0.095 µM) | 0.05 (≈ 0.095 µM) | 0.05 (≈ 0.095 µM) | 0.8 (≈ 1.52 µM) | Nc1nc(/C(=N/OCF)C(=O)N[C@@H]2C(=O)N3C(C(=O)[O-])=C(C[n+]4cccn4CCO)CS[C@H]23)ns1 [Example 9, 7β-[2-(5-Amino-1,2,4-thiadiazol-3-yl)-(Z)-2-fluoromethoxyiminoacetamido]-3-[2-(2-hydroxyethyl)-1-pyrazolio]methyl-3-cephem-4-carboxylate] | – | – | – |
| 0.4 (≈ 0.745 µM) | ≤ 0.025 | ≤ 0.025 | 0.05 (≈ 0.0932 µM) | 0.05 (≈ 0.0932 µM) | 0.8 (≈ 1.49 µM) | Nc1nc(/C(=N/OCF)C(=O)N[C@@H]2C(=O)N3C(C(=O)[O-])=C(C[n+]4ccc5n4CCCC5)CS[C@H]23)ns1 [Example 10, 7β-[2-(5-Amino-1,2,4-thiadiazol-3-yl)-(Z)-2-fluoromethoxyiminoacetamido]-3-[1-(2,3-tetramethylene)pyrazolio]methyl-3-cephem-4-carboxylate] | – | – | – |
